# “Also recorded” adds a separate entry of the source.
# Legend:
# SH-SY5Y cells = test: MPP+-induced LDH leakage in SH-SY5Y cells (LDH assay); assay type: cell-based, human; conditions: 2 h pre-treatment, MPP+ 36 h, MPP+ alone 209%, normalized to control
# Protocol: Cells were pre-treated with BHDPC (3, 10 and 30 μM) for 2 h and then incubated with or without 1 mM MPP^+ for further 24 h. Cell viability was measured by the MTT assay.
# Cell cytotoxicity was also determined by measuring the activity of LDH released into the incubation medium when cellular membranes were damaged. Cells were seeded at 96-well plates (5×10^3 cells/well). After treatment, the released LDH activity in the medium was measured according to the instructions of the Cytotoxicity Detection Kit (Roche Applied Science, Mannheim, Germany). Absorbance at 490 nm was measured using SpectraMax M5. All values of LDH released were normalized to the control group.
# The protective activity of BHDPC was also confirmed by the lactate dehydrogenase (LDH) assay. SH-SY5Y cells were treated with BHDPC for 2 h before exposed to MPP^+ for 36 h.
# caspase 3 = test: Caspase 3 activity assay in SH-SY5Y cells; assay type: cell-based, human
# Protocol: After pre-treatment with 30 μM BHDPC or 0.1% DMSO (vehicle control) for 2 h, SH-SY5Y cells were incubated with or without 2 mM MPP^+ for another 36 h. (FIG. 6A) Δψm was determined by the JC-1 assay.
# After treatment, the activity of caspase 3 was measured using the commercially available EnzChek Caspase-3 Assay Kit (Invitrogen, USA) according to the manufacturer's protocol. Briefly, SH-SY5Y cells were lysed in lysis buffer and centrifuged at 12,500×g for 5 min. 15 μL of cell lysate was incubated with 50 μL of 2× substrate working solution at room temperature for 30 min in 96-well plates. The fluorescence intensity was then determined by a SpectraMax M5 microplate reader at an excitation wavelength of 490 nm and emission at 520 nm. The fluorescence intensity of each sample was normalized to the protein concentration of sample. All values of % caspase 3 activities were normalized to the control group.
# Caspase 3 activation plays a key role in the execution-phase of the apoptosis.
# zebrafish = test: MPTP-induced dopaminergic neuron loss in zebrafish (TH whole-mount immunostaining); assay type: in vivo, Danio rerio; conditions: for TH+ density, percentage of the control group: 360 μM MPTP 48 h, 1 dpf zebrafish
# Protocol: Zebrafish at 1 dpf were exposed to BHDPC (3, 10, 30 μM) with or without MPTP for 48 h. Then fish were fixed for whole mount immunostaining. The morphology change of dopaminergic neurons in zebrafish brain was indicated by immunostaining with antibody against tyrosine hydroxylase (TH). Statistical analysis of TH density was accessed in each 10 fish/group. […] Zebrafish at 1 dpf were exposed to different concentrations of BHDPC with or without MPTP for 48 h. Then fish were fixed for whole mount immunostaining.
# The AB strain of wild type zebrafish (Danio rerio) was maintained as described in the Zebrafish Handbook. Zebrafish were staged by days post fertilization […]. For breeding, groups of male and female (3:2) adult zebrafish were placed in 10-L plastic aquarium equipped with spawning nets in the evening. In the following morning, eggs were collected from the breeding group tanks. Normally developed fertilized eggs were selected under a stereomicroscope for further studies. The MPTP manipulation was performed with appropriate safety precautions and all MPTP-containing water was bleached.
# Whole-mount immunostaining in zebrafish was performed as previously described. 3 dpf Zebrafish larvae were fixed with 4% paraformaldehyde in PBS for 30 min, […] (TH) staining was performed as previously described. Briefly, zebrafish were fixed in 4% paraformaldehyde in PBS for 5 h. Fixed samples were blocked (2% lamb serum and 0.1% BSA in PBST) for 1 h at room temperature. A mouse monoclonal anti-tyrosine hydroxylase (TH) antibody (Millipore, Billerica, MD, USA) was used as the primary antibody and incubated with samples overnight at 4° C. On the next day, samples were washed six times with PBST (each wash lasted 30 min), followed by incubation with Alexa Fluor® 488 goat anti-mouse antibodies. After immunostaining, zebrafish were mounted with 3.5% methylcellulose and photographed. Semi-quantification of the area of TH^+ cells was assessed by an investigator, unaware of the drug treatment, using Image-J software. Results are expressed as percentage of area of TH^+ cells in untreated normal control groups.
# In this example, the in vivo animal model was used to determine the neuroprotective effect of BHDPC. Anti-tyrosine hydroxylase (TH) whole mount immunostaining was used to determine dopaminergic neuronal populations in zebrafish larvae (FIG. 15A). TH activity is the key enzyme responsible for dopamine biosynthesis in the CNS. […] The dopamine reuptake inhibitor nomifensine (Nom), which protected against MPTP-induced neurotoxicity in vivo was used as a positive control. The treatment of larvae with 30 μM of nomifensine, a positive control drug attenuated MPTP-induced neurotoxicity, with TH^+ density […] by 30% compared to the MPTP group.
# L-deprenyl, which is a substituted phenethylamine used in treatment of early Parkinson's disease, was used as a positive control.
structure (smiles),measurement,setting,value
"COc1cc(C2C(C(=O)OCc3ccccc3)=C(C)Nc3nnnn32)ccc1O (stereo not shown) [BHDPC, benzyl 7-(4-hydroxy-3-methoxyphenyl)-5-methyl-4,7-dihydrotetrazolo[1,5-a]pyrimidine-6-carboxylate]",MPP+-induced LDH leakage,SH-SY5Y cells; 3 μM,200%
same,MPP+-induced LDH leakage,SH-SY5Y cells; 10 μM,184%
same,MPP+-induced LDH leakage,SH-SY5Y cells; 30 μM,170%
same,MPP+-induced caspase 3 activation,"caspase 3; 30 μM pre-treatment, 2 mM MPP+ 36 h",significantly reduced; also recorded: attenuated
same,caspase 3 activity,"caspase 3; BHDPC alone, without MPP+",did not affect caspase 3 activity
same,"TH+ density, percentage of the control group",zebrafish; 3 μM,66%
same,"TH+ density, percentage of the control group",zebrafish; 10 μM,74%
same,"TH+ density, percentage of the control group",zebrafish; 30 μM,90%
same,MPTP-induced TH+ density decrease (FIG. 15B),"zebrafish; 3 and 10 μM, MPTP 48 h, dose-dependent",rescue dramatically; also recorded: protected against MPTP-induced DA neuron loss
same,toxicity in the vital organs,zebrafish; BHDPC treated zebrafish compared to control groups,No toxicity was observed
